Laboratory results as given in ChEMBL document CHEMBL1800007, “Synthesis, activity, and structural analysis of novel α-hydroxytropolone inhibitors of human immunodeficiency virus reverse transcriptase-associated ribonuclease H” (J Med Chem, 2011).
pEC50, pIC50: −log10 of the molar value. The source made the active and inactive calls. No cut-off for these calls is given here.

Biological target: Human immunodeficiency virus type 1 reverse transcriptase (Human immunodeficiency virus 1, UniProt Q72547)
Assay: Inhibition of RNase H activity of his6-tagged HIV1 HXB2 reverse transcriptase p66/p51 expressed in Escherichia coli assessed as substrate cleavage at polypurine tract by PAGE-based fluorescent imaging method
Details: not given

SMILES	pIC50
Cc1cc(O)c(=O)c(O)c2c1C[C@@H](C(C)(O)CSCc1ccccc1)CC2 (mixture of isomers)	5.89
C=C(C)[C@H]1CCc2c(c(C)cc(O)c(=O)c2O)C1	6.22
Cc1cc(O)c(=O)c(O)c2c1C[C@@H](C(C)(O)CNc1ccccc1)CC2 (mixture of isomers)	5.92
CCS(=O)(=O)CC(C)(O)[C@H]1CCc2c(c(C)cc(O)c(=O)c2O)C1 (mixture of isomers)	6.62
CCN(CC)CC(C)(O)[C@H]1CCc2c(c(C)cc(O)c(=O)c2O)C1 (mixture of isomers)	6.30
CCSCC(C)(O)[C@H]1CCc2c(c(C)cc(O)c(=O)c2O)C1 (mixture of isomers)	6.42
CC(=O)Oc1cc(C)c2c(c(OC(C)=O)c1=O)CC[C@H](C(C)(O)CO)C2 (mixture of isomers)	5.72
Cc1cc(O)c(=O)c(O)c2c1C[C@@H](C(C)(O)CNCc1ccccc1F)CC2 (mixture of isomers)	5.92
Cc1cc(O)c(=O)c(O)c2c1C[C@@H](C(C)NCc1ccccc1)CC2 (mixture of isomers)	6.02
Cc1cc(O)c(=O)c(O)c2c1C[C@@H](C(C)(O)CSc1ccccc1)CC2 (mixture of isomers)	6.03
Cc1cc(O)c(=O)c(O)c2c1C[C@@H](C(C)(O)CS(=O)(=O)c1ccccc1)CC2 (mixture of isomers)	6.29
Cc1cc(O)c(=O)c(O)c2c1C[C@@H](C(C)(O)CN1CCCCC1)CC2 (mixture of isomers)	6.09
Cc1cc(O)c(=O)c(O)c2c1C[C@@H](C(C)O)CC2 (mixture of isomers)	6.17
Cc1cc(O)c(=O)c(O)c2c1C[C@@H](C(C)(O)C[S+]([O-])c1ccccc1)CC2 (mixture of isomers)	5.89
CC(C)c1ccc(O)c(=O)c(O)c1 [BETA-THUJAPLICINOL]	6.68

System: Human immunodeficiency virus 1
Assay: Antiviral activity against HIV1 RF infected in human CEM-SS cells assessed as protection against virus-induced cytopathic effect
Assay type: functional, organism-based
Details: not given

SMILES	inhibition (INH)
CCS(=O)(=O)CC(C)(O)[C@H]1CCc2c(c(C)cc(O)c(=O)c2O)C1 (mixture of isomers)	<50%
CCN(CC)CC(C)(O)[C@H]1CCc2c(c(C)cc(O)c(=O)c2O)C1 (mixture of isomers)	<50%
CCSCC(C)(O)[C@H]1CCc2c(c(C)cc(O)c(=O)c2O)C1 (mixture of isomers)	<50%

Same assay, conditions: Human immunodeficiency virus 1, RF, CEM-SS; read-out: EC50

SMILES	pEC50
Cc1cc(O)c(=O)c(O)c2c1C[C@@H](C(C)(O)CSCc1ccccc1)CC2 (mixture of isomers)	5.38
Cc1cc(O)c(=O)c(O)c2c1C[C@@H](C(C)(O)CNc1ccccc1)CC2 (mixture of isomers)	5.13
Cc1cc(O)c(=O)c(O)c2c1C[C@@H](C(C)(O)Cn1ccnc1)CC2 (mixture of isomers)	4.38
Cc1cc(O)c(=O)c(O)c2c1C[C@@H](C(C)NCc1ccccc1)CC2 (mixture of isomers)	4.97
Cc1cc(O)c(=O)c(O)c2c1C[C@@H](C(C)(O)CSc1ccccc1)CC2 (mixture of isomers)	4.94
Cc1cc(O)c(=O)c(O)c2c1C[C@@H](C(C)(O)CS(=O)(=O)c1ccccc1)CC2 (mixture of isomers)	4.67
Cc1cc(O)c(=O)c(O)c2c1C[C@@H](C(C)(O)CN1CCCCC1)CC2 (mixture of isomers)	4.99
Cc1cc(O)c(=O)c(O)c2c1C[C@@H](C(C)O)CC2 (mixture of isomers)	5.16
Cc1cc(O)c(=O)c(O)c2c1C[C@@H](C(C)(O)C[S+]([O-])c1ccccc1)CC2 (mixture of isomers)	4.84

Same assay, conditions: cem-ss

SMILES	EC50
C=C(C)[C@H]1CCc2c(c(C)cc(O)c(=O)c2O)C1	Not Active
CC(=O)Oc1cc(C)c2c(c(OC(C)=O)c1=O)CC[C@H](C(C)(O)CO)C2 (mixture of isomers)	Not Active
Cc1cc(O)c(=O)c(O)c2c1C[C@@H](C(C)(O)CNCc1ccccc1F)CC2 (mixture of isomers)	Not Active
CC(C)c1ccc(O)c(=O)c(O)c1 [BETA-THUJAPLICINOL]	Not Active

System: not listed separately
Assay: (§1) Cytotoxicity against human CEM-SS cells
Assay type: cell-based
Details: CEM-SS cells

SMILES	CC50
CC(=O)Oc1cc(C)c2c(c(OC(C)=O)c1=O)CC[C@H](C(C)(O)CO)C2 (mixture of isomers)	> 50 µM
CC(C)c1ccc(O)c(=O)c(O)c1 [BETA-THUJAPLICINOL]	2.3 µM

System: CEM-SS
Assay: as §1
Assay type: cell-based
Details: cem-ss

SMILES	CC50
Cc1cc(O)c(=O)c(O)c2c1C[C@@H](C(C)(O)CSCc1ccccc1)CC2 (mixture of isomers)	17.4 µM
Cc1cc(O)c(=O)c(O)c2c1C[C@@H](C(C)(O)CNc1ccccc1)CC2 (mixture of isomers)	31.7 µM
CCS(=O)(=O)CC(C)(O)[C@H]1CCc2c(c(C)cc(O)c(=O)c2O)C1 (mixture of isomers)	10.4 µM
Cc1cc(O)c(=O)c(O)c2c1C[C@@H](C(C)(O)Cn1ccnc1)CC2 (mixture of isomers)	> 50 µM
CCN(CC)CC(C)(O)[C@H]1CCc2c(c(C)cc(O)c(=O)c2O)C1 (mixture of isomers)	> 50 µM
CCSCC(C)(O)[C@H]1CCc2c(c(C)cc(O)c(=O)c2O)C1 (mixture of isomers)	25.8 µM
Cc1cc(O)c(=O)c(O)c2c1C[C@@H](C(C)(O)CNCc1ccccc1F)CC2 (mixture of isomers)	> 50 µM
Cc1cc(O)c(=O)c(O)c2c1C[C@@H](C(C)NCc1ccccc1)CC2 (mixture of isomers)	16.7 µM
Cc1cc(O)c(=O)c(O)c2c1C[C@@H](C(C)(O)CSc1ccccc1)CC2 (mixture of isomers)	17.8 µM
Cc1cc(O)c(=O)c(O)c2c1C[C@@H](C(C)(O)CS(=O)(=O)c1ccccc1)CC2 (mixture of isomers)	> 50 µM
Cc1cc(O)c(=O)c(O)c2c1C[C@@H](C(C)(O)CN1CCCCC1)CC2 (mixture of isomers)	> 50 µM
Cc1cc(O)c(=O)c(O)c2c1C[C@@H](C(C)O)CC2 (mixture of isomers)	26.1 µM
Cc1cc(O)c(=O)c(O)c2c1C[C@@H](C(C)(O)C[S+]([O-])c1ccccc1)CC2 (mixture of isomers)	> 50 µM

System: not listed separately
Assay: Therapeutic index, CC50 for human CEM-SS cells to EC50 for HIV1 RF
Assay type: cell-based
Details: not given

SMILES	selectivity ratio
Cc1cc(O)c(=O)c(O)c2c1C[C@@H](C(C)(O)CN1CCCCC1)CC2 (mixture of isomers)	4.9

Biological target: Human immunodeficiency virus type 1 reverse transcriptase (Human immunodeficiency virus 1) (UniProt Q72547)
Details: HXB2, at 20 µM
Description: Inhibition of DNA dependent DNA polymerase activity of his6-tagged HIV1 HXB2 reverse transcriptase p66/p51 expressed in Escherichia coli at 20 uM using fluorescently tagged duplex DNA substrate by PAGE and fluorescent imaging method

SMILES	inhibition
C=C(C)[C@H]1CCc2c(c(C)cc(O)c(=O)c2O)C1	inactive
Cc1cc(O)c(=O)c(O)c2c1C[C@@H](C(C)(O)Cn1ccnc1)CC2 (mixture of isomers)	inactive
CCN(CC)CC(C)(O)[C@H]1CCc2c(c(C)cc(O)c(=O)c2O)C1 (mixture of isomers)	inactive
CC(=O)Oc1cc(C)c2c(c(OC(C)=O)c1=O)CC[C@H](C(C)(O)CO)C2 (mixture of isomers)	inactive
CC(C)c1ccc(O)c(=O)c(O)c1 [BETA-THUJAPLICINOL]	inactive

System: Human immunodeficiency virus 1
Details: at 20 µM
Description: Inhibition of DNA dependent DNA polymerase activity of his6-tagged HIV1 HXB2 reverse transcriptase p66 E478Q/p51 mutant expressed in Escherichia coli at 20 uM using fluorescently tagged duplex DNA substrate by PAGE and fluorescent imaging method

SMILES	inhibition
Cc1cc(O)c(=O)c(O)c2c1C[C@@H](C(C)(O)CSCc1ccccc1)CC2 (mixture of isomers)	inactive
C=C(C)[C@H]1CCc2c(c(C)cc(O)c(=O)c2O)C1	inactive
Cc1cc(O)c(=O)c(O)c2c1C[C@@H](C(C)(O)CNc1ccccc1)CC2 (mixture of isomers)	Active
CCS(=O)(=O)CC(C)(O)[C@H]1CCc2c(c(C)cc(O)c(=O)c2O)C1 (mixture of isomers)	inactive
Cc1cc(O)c(=O)c(O)c2c1C[C@@H](C(C)(O)Cn1ccnc1)CC2 (mixture of isomers)	inactive
CCN(CC)CC(C)(O)[C@H]1CCc2c(c(C)cc(O)c(=O)c2O)C1 (mixture of isomers)	inactive
CCSCC(C)(O)[C@H]1CCc2c(c(C)cc(O)c(=O)c2O)C1 (mixture of isomers)	inactive
CC(=O)Oc1cc(C)c2c(c(OC(C)=O)c1=O)CC[C@H](C(C)(O)CO)C2 (mixture of isomers)	inactive
Cc1cc(O)c(=O)c(O)c2c1C[C@@H](C(C)(O)CNCc1ccccc1F)CC2 (mixture of isomers)	inactive
Cc1cc(O)c(=O)c(O)c2c1C[C@@H](C(C)NCc1ccccc1)CC2 (mixture of isomers)	inactive
Cc1cc(O)c(=O)c(O)c2c1C[C@@H](C(C)(O)CSc1ccccc1)CC2 (mixture of isomers)	inactive
Cc1cc(O)c(=O)c(O)c2c1C[C@@H](C(C)(O)CS(=O)(=O)c1ccccc1)CC2 (mixture of isomers)	inactive
Cc1cc(O)c(=O)c(O)c2c1C[C@@H](C(C)(O)CN1CCCCC1)CC2 (mixture of isomers)	inactive
Cc1cc(O)c(=O)c(O)c2c1C[C@@H](C(C)O)CC2 (mixture of isomers)	inactive
Cc1cc(O)c(=O)c(O)c2c1C[C@@H](C(C)(O)C[S+]([O-])c1ccccc1)CC2 (mixture of isomers)	Active
CC(C)c1ccc(O)c(=O)c(O)c1 [BETA-THUJAPLICINOL]	inactive

System: Human immunodeficiency virus 1
Details: at 20 µM
Remark: another data set of the same source
Description: Inhibition of DNA dependent DNA polymerase activity of his6-tagged HIV1 HXB2 reverse transcriptase p66 D549A/p51 mutant expressed in Escherichia coli at 20 uM using fluorescently tagged duplex DNA substrate by PAGE and fluorescent imaging method

SMILES	inhibition
Cc1cc(O)c(=O)c(O)c2c1C[C@@H](C(C)(O)CSCc1ccccc1)CC2 (mixture of isomers)	inactive
C=C(C)[C@H]1CCc2c(c(C)cc(O)c(=O)c2O)C1	inactive
Cc1cc(O)c(=O)c(O)c2c1C[C@@H](C(C)(O)CNc1ccccc1)CC2 (mixture of isomers)	Active
CCS(=O)(=O)CC(C)(O)[C@H]1CCc2c(c(C)cc(O)c(=O)c2O)C1 (mixture of isomers)	inactive
Cc1cc(O)c(=O)c(O)c2c1C[C@@H](C(C)(O)Cn1ccnc1)CC2 (mixture of isomers)	inactive
CCN(CC)CC(C)(O)[C@H]1CCc2c(c(C)cc(O)c(=O)c2O)C1 (mixture of isomers)	inactive
CCSCC(C)(O)[C@H]1CCc2c(c(C)cc(O)c(=O)c2O)C1 (mixture of isomers)	inactive
CC(=O)Oc1cc(C)c2c(c(OC(C)=O)c1=O)CC[C@H](C(C)(O)CO)C2 (mixture of isomers)	inactive
Cc1cc(O)c(=O)c(O)c2c1C[C@@H](C(C)(O)CNCc1ccccc1F)CC2 (mixture of isomers)	inactive
Cc1cc(O)c(=O)c(O)c2c1C[C@@H](C(C)NCc1ccccc1)CC2 (mixture of isomers)	inactive
Cc1cc(O)c(=O)c(O)c2c1C[C@@H](C(C)(O)CSc1ccccc1)CC2 (mixture of isomers)	inactive
Cc1cc(O)c(=O)c(O)c2c1C[C@@H](C(C)(O)CS(=O)(=O)c1ccccc1)CC2 (mixture of isomers)	inactive
Cc1cc(O)c(=O)c(O)c2c1C[C@@H](C(C)(O)CN1CCCCC1)CC2 (mixture of isomers)	inactive
Cc1cc(O)c(=O)c(O)c2c1C[C@@H](C(C)O)CC2 (mixture of isomers)	inactive
Cc1cc(O)c(=O)c(O)c2c1C[C@@H](C(C)(O)C[S+]([O-])c1ccccc1)CC2 (mixture of isomers)	Active
CC(C)c1ccc(O)c(=O)c(O)c1 [BETA-THUJAPLICINOL]	inactive
